According to patent publication US10258602B2 (Ocera Therapeutics, Inc., priority 2007, dated 2019):
Read-outs that look alike come from different tables or passages of the source.

Legend:
fasted rats = assay: Gastric emptying in fasted rat model, standard method E; format: in vivo; conditions: for Percent Increase in Gastric Emptying After Oral Administration: average where repeated
In short: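 Overnight-fasted male Wistar rats (200 g, n=5/group) received a 2 mL 2% methylcellulose meal labelled with 0.05% phenol red by gavage, then oral test article (typically 1–30 mg/kg) at t=0. At 15 min, stomach phenol red was measured colorimetrically at 560 nm; ≥30% increase in emptying vs vehicle deemed significant (ANOVA/Dunnett).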

CYP2A6 = molecular target: T1, CYP2A6 (Homo sapiens, UniProt P11509); assay: Cytochrome P450 inhibition, CYP2A6; format: in vitro ADME; conditions: read-out: IC50 2A6
T1 construct: purchased BD Gentest, Becton-Dickinson (Supersomes); host or cells: insect cells
T1 sequence (P11509 1-494): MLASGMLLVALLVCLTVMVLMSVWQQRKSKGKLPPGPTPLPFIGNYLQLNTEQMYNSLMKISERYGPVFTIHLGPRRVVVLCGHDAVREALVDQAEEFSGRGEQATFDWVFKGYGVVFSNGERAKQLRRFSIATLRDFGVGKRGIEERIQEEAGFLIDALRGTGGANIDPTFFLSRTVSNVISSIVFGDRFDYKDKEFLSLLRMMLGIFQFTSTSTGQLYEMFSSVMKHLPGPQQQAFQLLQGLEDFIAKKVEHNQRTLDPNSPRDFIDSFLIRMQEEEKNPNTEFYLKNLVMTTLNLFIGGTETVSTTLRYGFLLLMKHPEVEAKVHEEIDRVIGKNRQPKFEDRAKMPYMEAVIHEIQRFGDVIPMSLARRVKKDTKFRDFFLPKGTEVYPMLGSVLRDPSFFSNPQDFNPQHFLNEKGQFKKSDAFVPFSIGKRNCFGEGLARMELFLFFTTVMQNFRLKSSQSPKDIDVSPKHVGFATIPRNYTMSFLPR
Excerpt: (§1) K. Assay for Cytochrome P450 Inhibition
(§2) Cytochrome P450 enzymes are implicated in the phase I metabolism of drugs. The majority of drug-drug interactions are metabolism-based and, moreover, these interactions typically involve inhibition of cytochrome P450s. Six CYP450 enzymes (CYP1A2, CYP2C8, CYP2C9, CYP2C19, CYP2D6 and CYP3A4) appear to be commonly responsible for the metabolism of most drugs and the associated drug-drug interactions. Assays to determine the binding of compounds of the invention to the various metabolically important isoforms of cytochrome P450 metabolizing enzymes are commercially available, for example NoAb BioDiscoveries (Mississaugua, ON, Canada) and Absorption Systems (Exton, Pa., USA). As well, a number of appropriate methods have been described or reviewed in the literature. (White, R. E. Ann. Rev. Pharmacol. Toxicol. 2000, 40, 133-157; Li, A. P. Drug. Disc. Today 2001, 6, 357-366; Turpeinen, M.; Korhonen, L. E. Tolonen, A.; et al. Eur. J. Pharm. Sci, 2006, 29, 130-138.)
(§3) The key aspects of the experimental method were as follows: • 1. […] Assays monitored, via fluorescence detection, the formation of a fluorescent metabolite following incubation of the microsomes with a specific CYP substrate. • 3. Compounds of the present invention were tested in duplicate samples at eight test concentrations using 3-fold serial dilutions (concentration range of 0.0457 to 100 μM). • 4. For each CYP-450 enzyme, a specific inhibitor was tested in duplicate at eight concentrations as a positive control. • 5. The concentration of the inhibitor or test compound that inhibited metabolite formation by 50% (IC50) was calculated by non-linear regression analysis of the % inhibition vs. log concentration (M) curve.

CYP2C8 = molecular target: T2, CYP2C8 (Homo sapiens, UniProt P10632); assay: Cytochrome P450 inhibition, CYP2C8; format: in vitro ADME; conditions: read-out: IC50 2C8
T2 construct: purchased BD Gentest, Becton-Dickinson (Supersomes); host or cells: insect cells
T2 sequence (P10632 1-490): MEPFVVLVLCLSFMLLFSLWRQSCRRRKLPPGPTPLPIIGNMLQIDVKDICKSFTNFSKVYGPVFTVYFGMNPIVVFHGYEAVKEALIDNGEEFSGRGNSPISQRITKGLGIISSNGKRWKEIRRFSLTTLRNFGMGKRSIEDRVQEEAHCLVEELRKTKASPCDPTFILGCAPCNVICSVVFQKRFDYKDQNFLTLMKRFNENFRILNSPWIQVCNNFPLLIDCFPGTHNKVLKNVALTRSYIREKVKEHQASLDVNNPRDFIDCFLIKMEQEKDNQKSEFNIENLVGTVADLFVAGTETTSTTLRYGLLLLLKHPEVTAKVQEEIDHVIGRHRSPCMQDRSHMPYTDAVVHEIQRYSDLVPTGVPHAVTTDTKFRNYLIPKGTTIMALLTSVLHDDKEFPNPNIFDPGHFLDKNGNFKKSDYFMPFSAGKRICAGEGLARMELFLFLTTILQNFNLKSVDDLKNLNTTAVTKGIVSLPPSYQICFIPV
Excerpt: as §1, §2, §3

CYP2C9 = molecular target: T3, CYP2C9 (Homo sapiens, UniProt P11712); assay: Cytochrome P450 inhibition, CYP2C9; format: in vitro ADME; conditions: read-out: IC50 2C9
T3 construct: purchased BD Gentest, Becton-Dickinson (Supersomes); host or cells: insect cells
T3 sequence (P11712 whole entry): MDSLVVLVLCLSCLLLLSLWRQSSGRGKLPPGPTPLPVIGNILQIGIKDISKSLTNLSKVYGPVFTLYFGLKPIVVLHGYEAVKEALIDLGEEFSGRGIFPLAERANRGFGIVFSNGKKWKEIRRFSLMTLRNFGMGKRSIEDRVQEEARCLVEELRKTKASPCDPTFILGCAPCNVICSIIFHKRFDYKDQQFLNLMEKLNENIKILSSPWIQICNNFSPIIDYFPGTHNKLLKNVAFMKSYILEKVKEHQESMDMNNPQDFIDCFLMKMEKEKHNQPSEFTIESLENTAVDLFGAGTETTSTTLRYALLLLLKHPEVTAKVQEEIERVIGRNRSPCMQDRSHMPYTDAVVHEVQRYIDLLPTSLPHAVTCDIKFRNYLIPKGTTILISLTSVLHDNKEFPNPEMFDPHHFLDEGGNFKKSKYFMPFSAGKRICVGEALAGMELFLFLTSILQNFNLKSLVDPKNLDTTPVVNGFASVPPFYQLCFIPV
Excerpt: as §1, §2, §3

CYP2C19 = molecular target: T4, CYP2C19 (Homo sapiens, UniProt P33261); assay: Cytochrome P450 inhibition, CYP2C19; format: in vitro ADME; conditions: read-out: IC50 2C19
T4 construct: purchased BD Gentest, Becton-Dickinson (Supersomes); host or cells: insect cells
T4 sequence (P33261 whole entry): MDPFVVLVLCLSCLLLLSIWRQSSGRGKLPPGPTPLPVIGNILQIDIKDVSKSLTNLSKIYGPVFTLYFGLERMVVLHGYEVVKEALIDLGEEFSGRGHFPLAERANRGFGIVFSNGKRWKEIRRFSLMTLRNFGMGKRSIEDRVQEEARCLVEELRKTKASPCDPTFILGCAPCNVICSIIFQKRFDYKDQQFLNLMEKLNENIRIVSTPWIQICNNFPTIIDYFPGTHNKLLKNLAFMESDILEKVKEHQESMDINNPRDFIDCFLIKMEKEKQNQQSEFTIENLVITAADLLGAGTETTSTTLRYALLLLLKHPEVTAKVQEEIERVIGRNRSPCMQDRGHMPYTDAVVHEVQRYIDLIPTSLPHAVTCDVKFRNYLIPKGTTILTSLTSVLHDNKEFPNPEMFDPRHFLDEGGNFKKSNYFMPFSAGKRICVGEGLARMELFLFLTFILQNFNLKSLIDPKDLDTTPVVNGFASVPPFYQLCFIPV
Excerpt: as §1, §2, §3

CYP3A4 = molecular target: T5, CYP3A4 (Homo sapiens, UniProt P08684); assay: Cytochrome P450 inhibition, CYP3A4 (two substrates); format: in vitro ADME
T5 construct: purchased BD Gentest, Becton-Dickinson (Supersomes); host or cells: insect cells
T5 sequence (P08684 whole entry): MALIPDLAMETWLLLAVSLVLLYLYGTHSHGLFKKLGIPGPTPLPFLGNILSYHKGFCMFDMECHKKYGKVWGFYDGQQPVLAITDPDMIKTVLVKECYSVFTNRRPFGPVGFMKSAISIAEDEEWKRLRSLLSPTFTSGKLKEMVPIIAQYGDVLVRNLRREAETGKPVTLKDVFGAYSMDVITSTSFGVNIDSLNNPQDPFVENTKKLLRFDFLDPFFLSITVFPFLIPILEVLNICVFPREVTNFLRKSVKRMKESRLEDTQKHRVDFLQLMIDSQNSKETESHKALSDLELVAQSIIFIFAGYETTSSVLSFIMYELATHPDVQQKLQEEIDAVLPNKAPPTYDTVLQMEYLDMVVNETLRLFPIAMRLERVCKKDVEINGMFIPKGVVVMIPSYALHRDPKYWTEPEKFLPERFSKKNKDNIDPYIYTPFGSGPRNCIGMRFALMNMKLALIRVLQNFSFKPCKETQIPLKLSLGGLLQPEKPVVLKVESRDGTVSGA
Excerpt: as §1, §2, §3

rat plasma = assay: Plasma protein binding, rat plasma; format: in vitro ADME
[1] = CYP3A4, substrate BFC, read-out: IC50 3A4 (BFC)
[2] = CYP3A4, substrate BQ, read-out: IC50 3A4 (BQ)

## CC(C)C[C@H]1NC(=O)[C@@H](C)N(C)C(=O)[C@H](C2CC2)NC[C@@H](C)Oc2ccccc2CC[C@H](C)NC1=O [Compound 807]
Fasted rats; dose 1 mg/kg
  Percent Increase in Gastric Emptying After Oral Administration: 17%
Fasted rats; dose 3 mg/kg
  Percent Increase in Gastric Emptying After Oral Administration: 31%
Fasted rats; dose 10 mg/kg
  Percent Increase in Gastric Emptying After Oral Administration: 41%
Fasted rats; oral, up to 24 h post-dose
  gastric emptying rates remained increased: 18-23%
CYP2A6
  IC50: > 100 µM
CYP2C8
  IC50: > 100 µM
CYP2C9
  IC50: > 100 µM
CYP2C19
  IC50: > 100 µM
CYP3A4; [1]
  IC50: 23.3 µM
CYP3A4; [2]
  IC50: 6.1 µM

## CC(C)C[C@H]1NC(=O)[C@@H](C)N(C)C(=O)[C@H](C2CC2)NCCOc2cc(F)ccc2CC[C@H](C)NC1=O [Compound 822]
Fasted rats; dose 3 mg/kg
  Percent Increase in Gastric Emptying After Oral Administration: 6%
Rat plasma; test concentration 3 μg/mL
  Rat Plasma Protein Binding (%): 99.1%
CYP2A6
  IC50: > 100 µM
CYP2C8
  IC50: > 100 µM
CYP2C9
  IC50: > 100 µM
CYP2C19
  IC50: > 100 µM
CYP3A4; [1]
  IC50: 14.2 µM
CYP3A4; [2]
  IC50: 4.15 µM

## CC(C)CC1NC(=O)C(C)N(C)C(=O)C(C2CCCCC2)NCC(C)OC2CCCCC2CCCNC1=O (mixture of isomers) [Compound 828]
Fasted rats; dose 3 mg/kg
  Percent Increase in Gastric Emptying After Oral Administration: 24%
CYP2A6
  IC50: > 100 µM
CYP2C8
  IC50: > 100 µM
CYP2C9
  IC50: > 100 µM
CYP2C19
  IC50: > 100 µM
CYP3A4; [1]
  IC50: 18.7 µM
CYP3A4; [2]
  IC50: 8.9 µM

## C[C@@H]1C(=O)N[C@H](Cc2ccc(O)cc2)C(=O)NCCCc2ccc(F)cc2OCCN[C@@H](C2CC2)C(=O)N1C [Compound 809]
Fasted rats; dose 3 mg/kg
  Percent Increase in Gastric Emptying After Oral Administration: 5%
Rat plasma; test concentration 3 μg/mL
  Rat Plasma Protein Binding (%): 92.8%
CYP2A6
  IC50: > 100 µM
CYP2C8
  IC50: > 100 µM
CYP2C9
  IC50: > 100 µM
CYP2C19
  IC50: > 100 µM
CYP3A4; [1]
  IC50: 6.61 µM
CYP3A4; [2]
  IC50: 1.53 µM

## CC1CNC(C2CC2)C(=O)N(C)C(C)C(=O)NC(Cc2ccc(O)cc2)C(=O)NCCCC2CCCCC2O1 (mixture of isomers) [Compound 826]
Fasted rats; dose 1 mg/kg
  Percent Increase in Gastric Emptying After Oral Administration: 19%
Fasted rats; dose 3 mg/kg
  Percent Increase in Gastric Emptying After Oral Administration: 12%
Fasted rats; dose 10 mg/kg
  Percent Increase in Gastric Emptying After Oral Administration: 30%
Rat plasma; test concentration 3 μg/mL
  Rat Plasma Protein Binding (%): 97.2%
CYP2A6
  IC50: > 100 µM
CYP2C8
  IC50: > 100 µM
CYP2C9
  IC50: > 100 µM
CYP2C19
  IC50: > 100 µM
CYP3A4; [1]
  IC50: 47.5 µM
CYP3A4; [2]
  IC50: 4.5 µM

## CC(C)C[C@H]1NC(=O)[C@@H](C)N(C)C(=O)[C@H](C2CC2)NCCOc2cc(F)ccc2CCCNC1=O [Compound 810]
CYP2A6
  IC50: > 100 µM
CYP2C8
  IC50: > 100 µM
CYP2C9
  IC50: > 100 µM
CYP2C19
  IC50: > 100 µM
CYP3A4; [1]
  IC50: 7.42 µM
CYP3A4; [2]
  IC50: 1.08 µM

## C[C@@H]1C(=O)N[C@H](Cc2ccc(O)cc2)C(=O)NCCCc2cccc3c2O[C@H](CC3)CN[C@@H](C2CC2)C(=O)N1C [Compound 803]
Rat plasma; test concentration 1 μg/mL
  Rat Plasma Protein Binding (%): 99.1%
CYP2A6
  IC50: > 100 µM
CYP2C8
  IC50: 54.6 µM
CYP2C9
  IC50: > 100 µM
CYP2C19
  IC50: > 100 µM
CYP3A4; [2]
  IC50: 11.5 µM

## CC(C)CC1NC(=O)C(C)N(C)C(=O)C(C2CC2)NCC(C)OC2CCCCC2CCCNC1=O (mixture of isomers) [Compound 825]
Rat plasma; test concentration 1 μg/mL
  Rat Plasma Protein Binding (%): 96.6%
Rat plasma; test concentration 5 μg/mL
  Rat Plasma Protein Binding (%): 73%
CYP2A6
  IC50: > 100 µM
CYP2C8
  IC50: > 100 µM
CYP2C9
  IC50: > 100 µM
CYP2C19
  IC50: > 100 µM
CYP3A4; [1]
  IC50: 93.4 µM
CYP3A4; [2]
  IC50: 6.7 µM

## CC1NC(C2CC2)C(=O)N(C)C(C)C(=O)NC(Cc2ccc(O)cc2)C(=O)NCCCc2ccccc2OC1C (stereo not shown) [Compound 820]
Fasted rats; dose 1 mg/kg
  Percent Increase in Gastric Emptying After Oral Administration: 6%
Fasted rats; dose 3 mg/kg
  Percent Increase in Gastric Emptying After Oral Administration: 20%
Fasted rats; dose 10 mg/kg
  Percent Increase in Gastric Emptying After Oral Administration: 22%
Rat plasma; test concentration 3 μg/mL
  Rat Plasma Protein Binding (%): 98.8%
CYP2A6
  IC50: > 100 µM
CYP2C8
  IC50: > 100 µM
CYP2C9
  IC50: > 100 µM
CYP2C19
  IC50: > 100 µM
CYP3A4; [1]
  IC50: 47.4 µM
CYP3A4; [2]
  IC50: 13.8 µM
